Test results: the NIST ThermoML archive (doi:10.1021/je100081v)
Numbers after ± are expanded uncertainties.

Conditions: Liquid

| Compound | vapor or sublimation pressure (469.15 K) | vapor or sublimation pressure (509.95 K) |
| --- | --- | --- |
| OCCO [1,2-ethanediol] | 101.32 ± 0.19 kPa | – |
| O=CN1CCOCC1 [N-formylmorpholine] | – | 101.32 ± 0.2 kPa |
